Results reported in patent US6914045B2, “Glycopeptide antibiotics” (Wyeth Holdings Corporation, priority 2001, dated 2005).
Converted amounts (≈) assume the structure as drawn.

Tests used:
Test in all cases: in vitro antibacterial evaluation, MIC by broth dilution
Assay type in all cases: cell-based
Escherichia coli = conditions: 18 hours at 35° C.
Streptococcus sp. = conditions: broth dilution, 18 hours at 35° C.
Procedure, shortened: (§1)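 MIC = lowest antibiotic concentration preventing visible growth; inoculum 5×10^5 CFU/mL; drug range 64-0.06 μg/mL; Muller-Hinton II […]; NCCLS M7-A2 guidance.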

Staphylococcus sp. = conditions: broth dilution, 18 hours at 35° C.
Procedure, shortened: as §1

Enterococcus sp. = conditions: broth dilution, 18 hours at 35° C.
Procedure, shortened: as §1

In the case of `CC(c1ccccc1)C1NC(=O)CNC(=O)C(CO[Si](C)(C)C(C)(C)C)NC(=O)C(C(O)C2CNC(=N)N2C2OC3COC(C)(C)OC3C3OC(C)(C)OC32)NC(=O)C(C(O)C2CNC(=N)N2)NC(=O)C(Cc2ccc(O)cc2)NC1=O` (stereo not shown) [Example 248], the “MIC Escherichia coli (ATCC 25922)” value (Escherichia coli) is reported as 64 µg/mL (≈ 54.9 µM), the “MIC Escherichia coli (GC 4559)” value (Escherichia coli) is reported as 64 µg/mL (≈ 54.9 µM) and the “MIC Escherichia coli (GC 4560)” value (Escherichia coli) is reported as 8 µg/mL (≈ 6.86 µM). For the same molecule, the “MIC Streptococcus agalactiae (GC 4564)” value (Streptococcus sp.) was 64 µg/mL (≈ 54.9 µM), the “MIC Streptococcus pneumoniae (ATCC 6301)” value (Streptococcus sp.) was 64 µg/mL (≈ 54.9 µM) and the “MIC Streptococcus pneumoniae (GC 1894)” value (Streptococcus sp.) was 64 µg/mL (≈ 54.9 µM). For the same molecule, the “MIC Streptococcus pneumoniae (GC 4565)” value (Streptococcus sp.) was 128 µg/mL (≈ 110 µM), the “MIC Streptococcus pyogenes (GC 4563)” value (Streptococcus sp.) was 32 µg/mL (≈ 27.5 µM) and the “MIC Streptococcus pneumoniae (ATCC 6301)” value (Streptococcus sp.; strain ATCC 6301) was 64 µg/mL (≈ 54.9 µM). The “MIC Streptococcus pneumoniae (GC 1894)” value (Streptococcus sp.; strain GC 1894) was 64 µg/mL (≈ 54.9 µM), the “MIC Streptococcus pyogenes (GC 4563)” value (Streptococcus sp.; strain GC 4563) was 32 µg/mL (≈ 27.5 µM) and the “MIC Streptococcus agalactiae (GC 4564)” value (Streptococcus sp.; strain GC 4564) was 64 µg/mL (≈ 54.9 µM). For the same molecule, the “MIC Streptococcus pneumoniae (GC 4565)” value (Streptococcus sp.; strain GC 4565) was 128 µg/mL (≈ 110 µM), the “MIC Coagulase Negative Staphylococcus (GC 4547)” value (Staphylococcus sp.) was 16 µg/mL (≈ 13.7 µM) and the “MIC Coagulase Negative Staphylococcus (GC 4548)” value (Staphylococcus sp.) was 32 µg/mL (≈ 27.5 µM). For the same molecule, the “MIC Coagulase Negative Staphylococcus (GC 4549)” value (Staphylococcus sp.) was 32 µg/mL (≈ 27.5 µM), the “MIC Coagulase Negative Staphylococcus (GC 4551)” value (Staphylococcus sp.) was 32 µg/mL (≈ 27.5 µM) and the “MIC Coagulase Negative Staphylococcus (GC 6257)” value (Staphylococcus sp.) was 16 µg/mL (≈ 13.7 µM). The “MIC Staphylococcus aureus (ATCC 29213)” value (Staphylococcus sp.) was 32 µg/mL (≈ 27.5 µM), the “MIC Staphylococcus aureus (GC 1131)” value (Staphylococcus sp.) was 32 µg/mL (≈ 27.5 µM) and the “MIC Staphylococcus aureus (GC 3051)” value (Staphylococcus sp.) was 64 µg/mL (≈ 54.9 µM). For the same molecule, the “MIC Staphylococcus aureus (GC 3053)” value (Staphylococcus sp.) was 64 µg/mL (≈ 54.9 µM), the “MIC Staphylococcus aureus (GC 4541)” value (Staphylococcus sp.) was 32 µg/mL (≈ 27.5 µM) and the “MIC Staphylococcus aureus (GC 4542)” value (Staphylococcus sp.) was 64 µg/mL (≈ 54.9 µM). The “MIC Staphylococcus aureus (GC 4544)” value (Staphylococcus sp.) was 32 µg/mL (≈ 27.5 µM), the “MIC Staphylococcus aureus (GC 4545)” value (Staphylococcus sp.) was 32 µg/mL (≈ 27.5 µM) and the “MIC Staphylococcus aureus-SMITH (GC 4543)” value (Staphylococcus sp.) was 32 µg/mL (≈ 27.5 µM). For the same molecule, the “MIC Staphylococcus haemolyticus (GC 4546)” value (Staphylococcus sp.) was 16 µg/mL (≈ 13.7 µM), the “MIC Staphylococcus aureus (ATCC 29213)” value (Staphylococcus sp.; strain ATCC 29213) was 32 µg/mL (≈ 27.5 µM) and the “MIC Staphylococcus aureus (GC 1131)” value (Staphylococcus sp.; strain GC 1131) was 32 µg/mL (≈ 27.5 µM). The “MIC Staphylococcus aureus (GC 3051)” value (Staphylococcus sp.; strain GC 3051) was 64 µg/mL (≈ 54.9 µM), the “MIC Staphylococcus aureus (GC 3053)” value (Staphylococcus sp.; strain GC 3053) was 64 µg/mL (≈ 54.9 µM) and the “MIC Staphylococcus aureus (GC 4541)” value (Staphylococcus sp.; strain GC 4541) was 32 µg/mL (≈ 27.5 µM). The “MIC Staphylococcus aureus (GC 4542)” value (Staphylococcus sp.; strain GC 4542) was 64 µg/mL (≈ 54.9 µM), the “MIC Staphylococcus aureus-SMITH (GC 4543)” value (Staphylococcus sp.; strain GC 4543) was 32 µg/mL (≈ 27.5 µM) and the “MIC Staphylococcus aureus (GC 4544)” value (Staphylococcus sp.; strain GC 4544) was 32 µg/mL (≈ 27.5 µM). The “MIC Staphylococcus aureus (GC 4545)” value (Staphylococcus sp.; strain GC 4545) was 32 µg/mL (≈ 27.5 µM), the “MIC Staphylococcus haemolyticus (GC 4546)” value (Staphylococcus sp.; strain GC 4546) was 16 µg/mL (≈ 13.7 µM) and the “MIC Coagulase Negative Staphylococcus (GC 4547)” value (Staphylococcus sp.; strain GC 4547) was 16 µg/mL (≈ 13.7 µM). For the same molecule, the “MIC Coagulase Negative Staphylococcus (GC 4548)” value (Staphylococcus sp.; strain GC 4548) was 32 µg/mL (≈ 27.5 µM), the “MIC Coagulase Negative Staphylococcus (GC 4549)” value (Staphylococcus sp.; strain GC 4549) was 32 µg/mL (≈ 27.5 µM) and the “MIC Coagulase Negative Staphylococcus (GC 4551)” value (Staphylococcus sp.; strain GC 4551) was 32 µg/mL (≈ 27.5 µM). For the same molecule, the “MIC Coagulase Negative Staphylococcus (GC 6257)” value (Staphylococcus sp.; strain GC 6257) was 16 µg/mL (≈ 13.7 µM), the “MIC Enterococcus avium (GC 4558)” value (Enterococcus sp.) was 8 µg/mL (≈ 6.86 µM) and the “MIC Enterococcus faecalis (ATCC 29212)” value (Enterococcus sp.) was 64 µg/mL (≈ 54.9 µM). For the same molecule, the “MIC Enterococcus faecalis (GC 2242)” value (Enterococcus sp.) was 64 µg/mL (≈ 54.9 µM), the “MIC Enterococcus faecalis (GC 2691)” value (Enterococcus sp.) was 32 µg/mL (≈ 27.5 µM) and the “MIC Enterococcus faecalis (GC 3059)” value (Enterococcus sp.) was 128 µg/mL (≈ 110 µM). For the same molecule, the “MIC Enterococcus faecalis (GC 4552)” value (Enterococcus sp.) was 128 µg/mL (≈ 110 µM), the “MIC Enterococcus faecalis (GC 4553)” value (Enterococcus sp.) was 16 µg/mL (≈ 13.7 µM) and the “MIC Enterococcus faecalis (GC 4554)” value (Enterococcus sp.) was 64 µg/mL (≈ 54.9 µM). For the same molecule, the “MIC Enterococcus faecalis (GC 6189)” value (Enterococcus sp.) was 32 µg/mL (≈ 27.5 µM), the “MIC Enterococcus faecium (GC 2243)” value (Enterococcus sp.) was 32 µg/mL (≈ 27.5 µM) and the “MIC Enterococcus faecium (GC 4556)” value (Enterococcus sp.) was 32 µg/mL (≈ 27.5 µM). The “MIC Enterococcus faecium (GC 4557)” value (Enterococcus sp.) was 16 µg/mL (≈ 13.7 µM), the “MIC Enterococcus faecalis (ATCC 29212)” value (Enterococcus sp.; strain ATCC 29212) was 64 µg/mL (≈ 54.9 µM) and the “MIC Enterococcus faecalis (GC 2242)” value (Enterococcus sp.; strain GC 2242) was 64 µg/mL (≈ 54.9 µM). The “MIC Enterococcus faecium (GC 2243)” value (Enterococcus sp.; strain GC 2243) was 32 µg/mL (≈ 27.5 µM), the “MIC Enterococcus faecalis (GC 2691)” value (Enterococcus sp.; strain GC 2691) was 32 µg/mL (≈ 27.5 µM) and the “MIC Enterococcus faecalis (GC 3059)” value (Enterococcus sp.; strain GC 3059) was 128 µg/mL (≈ 110 µM). The “MIC Enterococcus faecalis (GC 4552)” value (Enterococcus sp.; strain GC 4552) was 128 µg/mL (≈ 110 µM), the “MIC Enterococcus faecalis (GC 4553)” value (Enterococcus sp.; strain GC 4553) was 16 µg/mL (≈ 13.7 µM) and the “MIC Enterococcus faecalis (GC 4554)” value (Enterococcus sp.; strain GC 4554) was 64 µg/mL (≈ 54.9 µM). For the same molecule, the “MIC Enterococcus faecium (GC 4556)” value (Enterococcus sp.; strain GC 4556) was 32 µg/mL (≈ 27.5 µM), the “MIC Enterococcus faecium (GC 4557)” value (Enterococcus sp.; strain GC 4557) was 16 µg/mL (≈ 13.7 µM) and the “MIC Enterococcus avium (GC 4558)” value (Enterococcus sp.; strain GC 4558) was 8 µg/mL (≈ 6.86 µM). For the same molecule, the “MIC Enterococcus faecalis (GC 6189)” value (Enterococcus sp.; strain GC 6189) was 32 µg/mL (≈ 27.5 µM).
